Laboratory results from patent publication US20060079512A1, “Dibenzodiazepinone analogues, processes for their production and their use as pharmaceuticals” (Ecopia BioSciences, Inc., priority 2003, published 2006).

Columns and labels:
Format in all cases: cell-based
[1] = test system: HT-29 (colorectal carcinoma); assay: In vitro cytotoxic activity (GI50), method (b), propidium iodide; details: Homo sapiens, 96 hrs
Experimental: (§1) Row H was filled wih medium only (150 μL, negative control-medium).

[2] = test system: PC-3 (prostate adenocarcinoma); assay: as above; details: 96 hrs
Experimental: as §1

[3] = test system: MDA-MB-231 (mammary gland adenocarcinoma); assay: as above; details: Homo sapiens, 96 hrs
Experimental: as §1

SF268 (CNS) = assay: as above; details: Homo sapiens, SF-268, 96 hrs
Experimental: as §1

[4] = test system: HT-29, SF-268, PC-3, MDA-MB-231; assay: Average GI50 over the four cell lines, method (b); details: for GI50: values > 30 not considered; for anticancer activity compared with Compound 1: four cell lines
Experimental: as §1

| Structure (SMILES) | GI50 [4] [µM] | GI50 [1] [µM] | GI50 [2] [µM] | GI50 [3] [µM] | GI50 (SF268 (CNS)) [µM] | anticancer activity compared with Compound 1 [4] |
| --- | --- | --- | --- | --- | --- | --- |
| CC(C)=CCCC1(C)OC1CC/C(C)=C/CN1C(=O)c2cccc(O)c2Nc2c(O)cc(O)cc21 (centres unmarked) [Compound 17, 10-(3,7,11-trimethyl-6,7-epoxydodeca-2,10-dienyl)-4,6,8-trihydroxy-5,10-dihydro-dibenzo[b,e][1,4]diazepin-11-one] | 16 | > 30 | 18.7 | > 30 | 13.4 | – |
| C/C(=C\CN1C(=O)c2cccc(O)c2Nc2c(O)cc(O)cc21)CC/C=C(\C)CCC1OC1(C)C (centres unmarked) [Compound 18] | – | > 30 | > 30 | > 30 | 7.45 | – |
| CCCN1c2c(O)cccc2C(=O)N(C/C=C(\C)CC/C=C(\C)CCC=C(C)C)c2cc(O)cc(O)c21 [Compound 63, 10-farnesyl-4,6,8-trihydroxy-5-n-propyl-5,10-dihydro-dibenzo[b,e][1,4]diazepin-11-one] | 1.74 | 2.57 | 1.25 | 2.27 | 0.89 | better anticancer activity than Compound 1 |
| CCC(C)N1c2c(O)cccc2C(=O)N(C/C=C(\C)CC/C=C(\C)CCC=C(C)C)c2cc(O)cc(O)c21 (centres unmarked) [Compound 77, 10-Farnesyl-4,6,8-trihydroxy-5-sec-butyl-5,10-dihydro-dibenzo[b,e][1,4]diazepin-11-one] | 9.98 | 13.9 | 17.1 | 5.62 | 3.31 | – |
| COC(C)(C)CCC/C(C)=C/CC/C(C)=C/CN1C(=O)c2cccc(O)c2Nc2c(O)cc(O)cc21 [Compound 82, 10-(11-methoxy-3,7,11-trimethyl-2,6-dodecadienyl)-4,6,8-trihydroxy-5,10-dihydro-dibenzo[b,e][1,4]diazepin-11-one] | 13.2 | 23.6 | 13.4 | 11 | 4.75 | – |
| COC(C)(CCC=C(C)C)CCC/C(C)=C/CN1C(=O)c2cccc(O)c2Nc2c(O)cc(O)cc21 (centres unmarked) [Compound 83] | 12.3 | 19.6 | 13.2 | 6.71 | 9.74 | – |
| COC(C)(C)CCCC(C)(CCC/C(C)=C/CN1C(=O)c2cccc(O)c2Nc2c(O)cc(O)cc21)OC (centres unmarked) [Compound 84, 10-(7,11-dimethoxy-3,7,11-trimethyl-2-dodecenyl)-4,6,8-trihydroxy-5,10-dihydro-dibenzo[b,e][1,4]diazepin-11-one] | 16.2 | 21.5 | 16.4 | 23.5 | 3.49 | – |
| CCN1c2c(O)cccc2C(=O)N(C/C=C(\C)CC/C=C(\C)CCCC(C)(C)OC)c2cc(O)cc(O)c21 [Compound 85, 10-(11-methoxy-3,7,11-trimethyl-2,6-dodecadienyl)-4,6,8-trihydroxy-5-ethyl-5,10-dihydro-dibenzo[b,e][1,4]diazepin-11-one] | 1.72 | 1.89 | 1.08 | 2.19 | 1.73 | better anticancer activity than Compound 1 |
| CCN1c2c(O)cccc2C(=O)N(CC=C(C)CCCC(C)(CCCC(C)(C)OC)OC)c2cc(O)cc(O)c21 (centres unmarked) [Compound 87, 10-(7,11-dimethoxy-3,7,11-trimethyl-2-dodecenyl)-4,6,8-trihydroxy-5-ethyl-5,10-dihydro-dibenzo[b,e][1,4]diazepin-11-one] | 1.63 | 1.83 | 1.39 | 2.4 | 0.91 | better anticancer activity than Compound 1 |
| CC(C)=CCCC(C)(O)CCC/C(C)=C/CN1C(=O)c2cccc(O)c2Nc2c(O)cc(O)cc21 (centres unmarked) [Compound 89, 10-(7-hydroxy-3,7,11-trimethyldodeca-2,10-dienyl)-4,6,8-trihydroxy-5,10-dihydro-dibenzo[b,e][1,4]diazepin-11-one] | 17.5 | > 30 | 13.5 | 25.3 | 13.7 | – |
| CC(=O)NC(C)(CCC=C(C)C)CCC/C(C)=C/CN1C(=O)c2cccc(O)c2Nc2c(O)cc(O)cc21 (centres unmarked) [Compound 92, 10-(7-acetamido-3,7,11-trimethyldodeca-2,10-dienyl)-4,6,8-trihydroxy-5,10-dihydro-dibenzo[b,e][1,4]diazepin-11-one] | 13.7 | > 30 | 16.6 | 11.1 | 13.5 | – |
| CC(C)=CCC/C(C)=C/CC/C(C)=C/CN1C(=O)c2cccc(O)c2Nc2c1cc(O)c(Br)c2O [Compound 97, 10-(farnesyl)-7-bromo-4,6,8-trihydroxy-5,10-dihydro-dibenzo[b,e][1,4]diazepin-11-one] | 1.82 | 2.02 | 1.19 | 2.02 | 2.04 | generally more active than Compound 1 |

Continued by falling GI50 [4], values first:

| GI50 [4] [µM] | Structure (SMILES) | GI50 [1] [µM] | GI50 [2] [µM] | GI50 [3] [µM] | GI50 (SF268 (CNS)) [µM] | anticancer activity compared with Compound 1 [4] |
| --- | --- | --- | --- | --- | --- | --- |
| 1.55 | CCCCCCN1c2c(O)cccc2C(=O)N(C/C=C(\C)CC/C=C(\C)CCC=C(C)C)c2cc(O)cc(O)c21 [Compound 67, 10-farnesyl-4,6,8-trihydroxy-5-n-hexyl-5,10-dihydro-dibenzo[b,e][1,4]diazepin-11-one] | 2.44 | 1.33 | 1.92 | 0.53 | better anticancer activity than Compound 1 |
| 1.53 | CCN1c2c(O)cccc2C(=O)N(C/C=C(\C)CC/C=C(\C)CCC=C(C)C)c2cc(O)cc(O)c21 [Compound 14, 10-farnesyl-4,6,8-trihydroxy-5-ethyl-5,10-dihydro-dibenzo[b,e][1,4]diazepin-11-one] | 2.04 | 1.15 | 2.16 | 0.76 | – |
| 1.4 | CCCCN1c2c(O)cccc2C(=O)N(C/C=C(\C)CC/C=C(\C)CCC=C(C)C)c2cc(O)cc(O)c21 [Compound 64, 10-farnesyl-4,6,8-trihydroxy-5-n-butyl-5,10-dihydro-dibenzo[b,e][1,4]diazepin-11-one] | 2.5 | 1.14 | 1.39 | 0.56 | better anticancer activity than Compound 1 |
| 1.14 | COC(C)(CCC=C(C)C)CCC/C(C)=C/CN1C(=O)c2cccc(O)c2N(C)c2c(O)cc(O)cc21 (centres unmarked) [Compound 80, 10-(7-methoxy-3,7,11-trimethyldodeca-2,10-dienyl)-4,6,8-trihydroxy-5-methyl-5,10-dihydro-dibenzo[b,e][1,4]diazepin-11-one] | 1.43 | 1.8 | 1.02 | 0.33 | better anticancer activity than Compound 1 |
| 0.21 | CC(C)CCCC(C)CCCC(C)CCN1C(=O)c2cccc(O)c2N(C)c2c(O)cc(O)cc21 (centres unmarked) [Compound 78, 10-(3,7,11-trimethyldodecyl)-4,6,8-trihydroxy-5-methyl-5,10-dihydro-dibenzo[b,e][1,4]diazepin-11-one] | 0.29 | 0.23 | 0.24 | 0.07 | better anticancer activity than Compound 1 |
